The source of these data is US20250041427A1, “DINUCLEAR PHOSPHANE GOLD(I) COMPLEXES FOR TREATING CANCER” (priority 2023, published 2025).

Where two headings read alike, the source gives them in different places.

One data set deals with MCF-7 cancer cell line. Conditions: value from cited reference; read-out: IC50 MCF-7 (literature complexes); cited from earlier work.
The next data set deals with HCT116 cells. Briefly: AlamarBlue cell proliferation assay, HCT116. Conditions: for IC50: read-out: Half maximal inhibitory concentration (IC50) HCT116, 24 hours exposure, AlamarBlue, mean of three replicates ± standard error. As to the method:
(§1) Human colorectal carcinoma cell line HCT116 and human breast adenocarcinoma cell line MCF-7 were purchased from ATCC. The cells were cultured in Dulbecco's Modified Eagle's Medium (DMVEM) complemented with 10% fetal bovine serum (FBS) at 37° C. (5% CO2 and 95% humidity). 100 µg/mL streptomycin and 100 U/mL penicillin were used in the media to prevent microbial growth. Assays were performed on cells from passages 3-8.
(§2) AlamarBlue® was used to determine the drug-dose response according to the manufacturer's instruction (Thermo Fisher, Waltham, Massachusetts, United States). The samples of complexes were diluted to a working concentration in DMVEM before their exposure to the cancer cells. The cancer cells were cultivated in 96-well plates for 24 hours. The cell culture medium was then removed and the diluted test compounds were added to the wells. The well plates were incubated for 24 hours at 37° C. with 5% CO2. Subsequently, the cell culture medium was removed for the addition of 10% AlamarBlue® (diluted in DMEM) to each well. The plates were incubated for 3 hours at 37° C. protected from light. The cytotoxicity/proliferation was measured using fluorescence spectrophotometry with fluorescence being read at an excitation wavelength of 560 nm and an emission wavelength of 590 nm. To calculate the percentage difference in reduction between treated and control cells in cytotoxicity/proliferation assays, the following formula was used: […]
(§3) The prepared […] complexes 1-4 were evaluated for their inhibition of cell proliferation towards two human cancer cell lines: HCT116 and MCF-7. The cells were treated with a range of concentrations (0.3, 1, 3, 10, 100 μM) of the complexes for 24 hours. The cells viability were then assessed and half maximal inhibitory concentration (IC50) values were calculated thereafter. […] These values are about 6- to 20-fold lower than cisplatin IC50 values.

Data set [1] relates to MCF-7 cells. Briefly: AlamarBlue cell proliferation assay, MCF-7. The class given is cell-based, human. The note with it: 24 hours exposure, mean of three replicates ± standard error. As to the method:
as §1, §2, §3

The test system of data set [2] is MCF-7 cells. Briefly: Mitochondrial membrane potential (ΔΨm), JC-1 dye. The class given is cell-based, human. The note with it: MCF-7, 24 hours. As to the method: MCF-7 cells (1×10^4 cells per well in a 96-well plate) were treated with different concentrations of complexes, and untreated cells were used as a negative control. After treatment for 24 hours, 5,5′,6,6′-tetrachloro-1,1′,3,3′-tetraethylbenzimidazolocarbocyanine iodide (JC-1) dye (Thermo Fisher, Waltham, Massachusetts, United States) was added to each well containing the cells. The staining was performed following the protocol provided by the manufacturer. A fluorescence spectrophotometer was used to measure the fluorescence of JC-1-stained cells, and fluorescence signals in the red and green channels were recorded separately.
To examine the effect of complexes 1-4 on mitochondrial membrane potential (ΔΨm), JC-1 fluorescence dye was used to stain intact and depolarized mitochondria in MCF-7 cells following exposure to the complexes.

In the next data set the test system is HCT116 cancer cell line. Conditions: value from cited reference; read-out: IC50 HCT116 (literature complexes); cited from earlier work.
Data set [3] is described as follows: Solution chemistry / stability by UV-Vis spectrophotometry. The class given is physicochemical. Conditions: room temperature; complexes 2, 3 in DMSO:H2O (3:7); complex 4 in 100% DMSO and DMSO:H2O (1:1). As to the method: The solution chemistry of complexes 2, 3, and 4 ([…], 10 mL) was investigated using ultraviolet-visible (UV-Vis) spectrophotometry at room temperature. The studied complexes are partially soluble in aqueous solution. Complexes 2 and 3 were dissolved in the mixture of DMSO:H2O (3:7), where H2O is a co-solvent of DMSO. A UV-Vis experiment was performed initially at time=0 (2 and 3) and at time=24 hours (2′ and 3′) (FIG. 26A). Furthermore, complex 4 was dissolved in 100% DMSO and a mixture of (DMSO:H2O) (1:1), where H2O is co-solvent of DMSO. Further, a UV-Vis experiment was performed initially at time=0 (4) and at time=24 hours.

The test system of data set [4] is prostate (PC-3) cancer cells. The note with it: PC-3 cells; cited from earlier work.
For data set [5], the system named is glioblastoma (U87-MG) cancer cells. The note with it: cited from earlier work.
Where [6] appears, read: read-out: Half maximal inhibitory concentration (IC50) MCF-7.

Consider `[C](#Cc1ccncc1)[Au][PH](CCCC[PH]([Au][C]#Cc1ccncc1)(c1ccccc1)c1ccccc1)(c1ccccc1)c1ccccc1` [[Au2(dppb)(4-ep)2]], for which the IC50 in the data set on MCF-7 cancer cell line is 2.8 ± 0.6 µM.

For `N.N.[Cl][Pt][Cl]` [Cisplatin, reference compound], the IC50 was found to be 20.8 ± 0.93 µM in the data set with HCT116 cells and 21.1 ± 1.41 µM with MCF-7 cells [1] (setting [6]).

As to [Au2(Bdbp)(Dppp)]P2F12 [Complex 2], the IC50 was 3.6 ± 0.37 µM with HCT116 cells and 2.3 ± 0.24 µM in the data set on MCF-7 cells [1] (setting [6]).

On to [Au2(Bdbp)(Dppe)]P2F12 [Complex 1], for which the IC50 in the data set on HCT116 cells amounted to 8.2 µM; in the data set on MCF-7 cells [1] (setting [6]) it was 7.9 µM. Besides, the “effect on mitochondrial membrane potential (ΔΨm) at 2.5 μM” value with MCF-7 cells [2] was “least reduction of ΔΨm”.

Take “Chlorotriphenylposphine-1,3-bis(diphenylphosphino)propanegold(I) [[Au(dppp)(PPh3)Cl]]”: the IC50 in the data set with HCT116 cancer cell line was 4.17 µM.

[Au2(Bdbp)(Dpma)]P2F12 [Complex 4]: the IC50 was found to be 0.93 µM in the data set on HCT116 cells; 1.2 ± 0.32 µM in the data set with MCF-7 cells [1] (listed as 4, read-out: Half maximal inhibitory concentration (IC50) MCF-7); 1.8 µM in the data set with MCF-7 cells [1] (listed as complex 4, read-out: Half maximal inhibitory concentration (IC50) MCF-7). Also, in the data set on MCF-7 cells [2], the “effect on mitochondrial membrane potential (ΔΨm) at 2.5 μM” value is listed as “most reduction of ΔΨm”. Moreover, in data set [3], the “stability in solution (UV-Vis, time 0 vs 24 hours)” value is “high stability”.

For `COc1cccc(OC)c1[PH]([Au+][PH](c1c(OC)cccc1OC)(c1c(OC)cccc1OC)c1c(OC)cccc1OC)(c1c(OC)cccc1OC)c1c(OC)cccc1OC.F[P-](F)(F)(F)(F)F` [[Au{P(2,6-dimethoxyphenyl)3}2]PF6], the “fold higher cytotoxicity than cisplatin” value in data set [4] and in data set [5] was 30 fold each time.

[Au2(Bdbp)(Dppb)]P2F12 [Complex 3]: the IC50 in the data set with HCT116 cells worked out at 1.8 ± 0.22 µM; with MCF-7 cells [1] (setting [6]) it was 1.3 ± 0.54 µM. The “increase of cytotoxic effect on lengthening linker from 2 carbons (complex 1) to 4 carbons” value with HCT116 cells (relative to complex 1, FIG. 24A/24E vs 24C/24G (HCT116 and MCF-7)) is on record as “about 4.5 fold”. Also, the “stability in solution (UV-Vis, time 0 vs 24 hours)” value in data set [3] is on record as “less stability”.
